Measured values published in the NIST ThermoML archive (doi:10.1016/j.jct.2018.02.022).

Test: xn = mol fraction of the nth substance listed
Details: 92.3 kPa, Liquid; for viscosity: Concentric cylinders viscometry; for speed of sound: Frequency=3 MHz, Single path-length method; for mass density: Vibrating tube method

OCCO [1,2-ethanediol] + O
Details	mass density, 303.15 K [kg/m3]	mass density, 308.15 K [kg/m3]	speed of sound, 303.15 K [m/s]	speed of sound, 308.15 K [m/s]	viscosity, 303.15 K [mPa·s]	viscosity, 308.15 K [mPa·s]
x1 = 0.0101	1000.04	998.43	1523.1	1532.7	–	–
x1 = 0.0201	1004	1002.32	1536.3	1544.8	–	–
x1 = 0.0302	1007.88	1006.13	1549.1	1556.6	–	–
x1 = 0.0407	1011.76	1009.9	1561.7	1568.1	–	–
x1 = 0.0494	1014.98	1013.02	–	–	1.164	1.059
x1 = 0.0506	1015.24	1013.36	1573	1578.4	–	–
x1 = 0.0605	1018.73	1016.68	1583.6	1588	–	–
x1 = 0.0704	1022.12	1019.92	1594	1597.4	–	–
x1 = 0.0801	1025.1	1022.9	1602.9	1605.7	–	–
x1 = 0.0905	1028.31	1026.05	1612.5	1614.3	–	–
x1 = 0.0986	1030.68	1028.37	–	–	1.555	1.38
x1 = 0.0997	1031.05	1028.71	1620.2	1621.3	–	–
x1 = 0.1483	1043.73	1041.14	–	–	1.99	1.741
x1 = 0.1493	1044.06	1041.45	1654.1	1652	–	–
x1 = 0.1985	1054.47	1051.74	1676.9	1672.2	–	–
x1 = 0.2072	1056.16	1053.32	–	–	2.564	2.226
x1 = 0.2466	1063	1060.02	–	–	2.965	2.572
x1 = 0.2487	1063.38	1060.37	1690.5	1684.2	–	–
x1 = 0.298	1070.45	1067.33	–	–	3.541	3.066
x1 = 0.2998	1070.7	1067.57	1698.3	1690.6	–	–
x1 = 0.3318	1074.59	1071.38	1700.5	1692.2	–	–
x1 = 0.3399	1075.52	1072.31	–	–	4.029	3.48
x1 = 0.3921	1080.8	1077.51	–	–	4.67	4.026
x1 = 0.3981	1081.34	1077.99	1701.1	1691.7	–	–
x1 = 0.4446	1085.21	1081.86	–	–	5.349	4.605
x1 = 0.4521	1085.69	1082.37	1698.9	1688.8	–	–
x1 = 0.4934	–	1085.26	1695.7	1685.2	–	–
x1 = 0.5007	–	1085.73	–	–	6.109	5.245
x1 = 0.5485	1091.97	–	–	–	6.771	5.811
x1 = 0.552	1092.19	–	1690.2	1679.4	–	–
x1 = 0.5846	1093.94	1090.48	1686.7	1675.8	–	–
x1 = 0.6004	1094.63	1091.17	–	–	7.519	6.445
x1 = 0.6451	1096.63	1093.16	–	–	8.173	7.002
x1 = 0.6481	1096.77	1093.29	1679.9	1668.8	–	–
x1 = 0.6773	1097.96	1094.48	1676.6	1665.3	–	–
x1 = 0.7012	1098.83	1095.34	–	–	9.085	7.725
x1 = 0.7421	1100.21	1096.71	1669.4	1658	–	–
x1 = 0.7435	1100.29	1096.79	–	–	9.808	8.27
x1 = 0.7811	1101.44	1097.94	1665	1653.6	–	–
x1 = 0.7907	1101.74	1098.23	–	–	10.55	8.857
x1 = 0.8497	–	1099.81	1657.7	1646.1	–	–
x1 = 0.8505	–	1099.84	–	–	11.54	9.617
x1 = 0.89	1104.3	1100.78	–	–	12.15	10.11
x1 = 0.9002	1104.55	1101.03	1652.6	1640.9	–	–
x1 = 0.9059	1104.67	1101.15	1652.1	1640.4	–	–
x1 = 0.912	1104.78	1101.26	1651.6	1639.9	–	–
x1 = 0.9299	1105.19	1101.66	1649.8	1638.1	–	–
x1 = 0.9413	1105.43	1101.91	1648.7	1637	–	–
x1 = 0.9495	1105.62	1102.1	1647.8	1636.1	–	–
x1 = 0.9532	1105.68	1102.16	–	–	13.12	10.89
x1 = 0.9546	1105.72	1102.2	1647.5	1635.8	–	–
x1 = 0.9681	1105.98	1102.46	1646.3	1634.6	–	–
x1 = 0.9789	1106.18	–	1645.4	1633.6	–	–
x1 = 0.9893	1106.39	–	1644.3	1632.5	–	–
x1 = 1	1106.71	–	1642.9	1631.2	13.87	11.48
